This is an account of results in patent publication US10125126B2, “N-cycloalkyl-N-[(heterocyclylphenyl)methylene]-(thio)carboxamide derivatives” (BAYER CROPSCIENCE AG, priority 2012, dated 2018).

The test system of one data set is Alternaria brassicae. Kind of data set: In vivo preventive test on Alternaria brassicae (leaf spot on radish). To be noted: 500 ppm of active ingredient; radish plants; 6 days after contamination. The protocol: In Vivo Preventive Test on Alternaria brassicae (Leaf Spot on Radish) […] Radish plants (“Pernod Clair” variety), sown in starter cups on a 50/50 peat soil pozzolana substrate and grown at 17° C., are treated at the cotyledon stage by spraying with the active ingredient prepared as described above. Plants, used as controls, are treated with the mixture of acetone/tween/DMSO/water not containing the active material. After 24 hours, the plants are contaminated by spraying the cotyledons with an aqueous suspension of Alternaria brassicae spores (50 000 spores per mL). The spores are collected from a 15-day-old culture. The contaminated radish plants are incubated at 20° C. and at 100% relative humidity. Grading (% of efficacy) is carried out 6 days after the contamination, in comparison with the control plants.

For the next data set, the system named is Septoria tritici. Kind of data set: In vivo preventive test on Septoria tritici (wheat). To be noted: 500 ppm of active ingredient; wheat plants; 24 days after contamination. In outline: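 Scipion wheat grown at 22° C, sprayed at 1-leaf stage (10 cm); controls received acetone/tween/DMSO/water without active. Inoculated 24 h later with S. tritici spores (500 000/mL), held 72 h at 18° C, 100% RH, then 21 days at 90% RH. % efficacy vs controls scored 24 days post-inoculation.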

The next data set has as its system Uromyces appendiculatus. Kind of data set: In vivo preventive test on Uromyces appendiculatus (bean rust). Particulars: bean plants, 11 days after contamination. In outline: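 Saxa bean plants at 2-leaf stage, grown at 24° C., sprayed preventively with compound; 24 h later inoculated with U. appendiculatus spores (150 000 spores per mL). Percent efficacy graded 11 days after inoculation versus solvent-treated controls.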

The subject of a further data set is Pyrenophora teres. Kind of data set: In vivo preventive test on Pyrenophora teres (barley). Particulars: barley plants, 14 days after contamination. On the procedure: In Vivo Preventive Test on Pyrenophora teres (Barley) […] Barley plants (“Plaisant” variety), sown in starter cups on a 50/50 peat soil pozzolana substrate and grown at 22° C., are treated at the 1 leaf stage (10 cm height) by spraying with the active ingredient prepared as described above. Plants, used as controls, are treated with the mixture of acetone/tween/DMSO/water not containing the active material. After 24 hours, the plants are contaminated by spraying the leaves with an aqueous suspension of Pyrenophora teres spores (12 000 spores per mL). The spores are collected from a 12-day-old culture. […] Grading (% of efficacy) is carried out 14 days after the contamination, in comparison with the control plants.

Another data set relates to Puccinia recondita. In words: In vivo preventive test on Puccinia recondita (brown rust on wheat). To be noted: 500 ppm of active ingredient; wheat plants; 12 days after contamination. The gist of the method: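 Wheat plants ("Scipion") at 1-leaf stage, grown at 22° C, were sprayed with compound, then inoculated 24 h later with Puccinia recondita spores (100 000 spores per mL). Efficacy (%) graded 12 days after inoculation relative to solvent-treated controls.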

The nature of data set [1]: log P by HPLC on a reversed-phase column (C 18), EEC Directive 79/831 Annex V.A8. It counts as physicochemical. To be noted: HPLC on reversed-phase column (C 18), 40° C., 0.1% aqueous formic acid and acetonitrile, linear gradient 10% to 90% acetonitrile. In outline:
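Reversed-phase C18 HPLC at 40° C with a linear 10% to 90% acetonitrile gradient against 0.1% aqueous formic acid. Log P is read from retention time by linear interpolation between successive unbranched alkan-2-ones (C3–C16) of known log P. UV spectra from 200 to 400 nm, taken at chromatographic peak maxima, give lambda-max.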

For a further data set, the system named is Botrytis cinerea. In words: In vivo preventive test on Botrytis cinerea (grey mould). To be noted: gherkin plants, 4 to 5 days after contamination. On the procedure: In Vivo Preventive Test on Botrytis cinerea (Grey Mould) […] Gherkin plants (“Vert petit de Paris” variety), sown in starter cups on a 50/50 peat soil pozzolana substrate and grown at 24° C., are treated at the Z11 cotyledon stage by spraying with the active ingredient prepared as described above. Plants, used as controls, are treated with the mixture of acetone/tween/DMSO/water not containing the active material. After 24 hours, the plants are contaminated by spraying the cotyledons with an aqueous suspension of cryopreserved Botrytis cinerea spores (50 000 spores per mL). The spores are suspended in a nutrient solution composed of 10 g/L of PDB, 50 g/L of D-Fructose, 2 g/L of NH4NO3 and 1 g/L of KH2PO4. The contaminated gherkin plants are incubated at 17° C. and at 90% relative humidity. Grading (% of efficacy) is carried out 4 to 5 days after the contamination, in comparison with the control plants.

A further data set concerns Sphaerotheca fuliginea. Kind of data set: In vivo preventive test on Sphaerotheca fuliginea (powdery mildew on cucurbits). To be noted: 500 ppm of active ingredient; gherkin plants; 12 days after contamination. In outline: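 Gherkin plants ("Vert petit de Paris") grown at 24 °C were sprayed at cotyledon stage Z11; controls received acetone/tween/DMSO/water without active. Inoculation 24 h later by spraying cotyledons with 100 000 spores/mL. Efficacy (%) graded 12 days post-contamination versus controls.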

As to `Cn1nc(C(F)F)c(C(=O)N(Cc2cc(Cl)ccc2-c2ccoc2)C2CC2)c1F` [I.28], the Efficacy is listed as 96% in the data set on Alternaria brassicae; 97% in the data set on Septoria tritici; 99% in the data set on Uromyces appendiculatus (500 ppm of active ingredient); 79% in the data set on Pyrenophora teres (500 ppm of active ingredient); 94% with Puccinia recondita. In data set [1], this compound registered a logP of 3.64.

For `Cn1nc(C(F)F)c(C(=O)N(Cc2cc(-c3ccco3)ccc2Cl)C2CC2)c1F` [I.34], the Efficacy with Pyrenophora teres (100 ppm of active ingredient) came to 81%; in the data set with Botrytis cinerea (100 ppm of active ingredient) it was 99%. This compound also yielded a logP in data set [1] of 3.81.

On to `Cn1cc(-c2ccccc2CN(C(=O)c2c(C(F)F)nn(C)c2F)C2CC2)cn1` [I.54], for which the Efficacy with Sphaerotheca fuliginea was 95%; in the data set on Alternaria brassicae, 83%; in the data set with Septoria tritici, 100%; in the data set on Uromyces appendiculatus (500 ppm of active ingredient), 97%; in the data set with Puccinia recondita, 80%; in the data set on Botrytis cinerea (500 ppm of active ingredient) it was 97%. The compound also came in with a logP in data set [1] of 2.34.

Turning to `Cn1nc(C(F)F)c(C(=O)N(Cc2ccccc2-c2ccsc2)C2CC2)c1F` [I.67], the Efficacy in the data set with Sphaerotheca fuliginea was 100%; in the data set with Septoria tritici, 97%; in the data set with Uromyces appendiculatus (500 ppm of active ingredient) it was 100%; in the data set with Pyrenophora teres (500 ppm of active ingredient), 79%; in the data set with Puccinia recondita it was 100%. In data set [1], the log partition coefficient (logP) amounted to 3.55.

Regarding `Cn1nc(C(F)F)c(C(=O)N(Cc2cc(Cl)ccc2-c2cccs2)C2CC2)c1F` [I.68], the Efficacy in the data set on Sphaerotheca fuliginea came to 94%; in the data set on Alternaria brassicae, 71%; in the data set on Septoria tritici, 83%; in the data set on Uromyces appendiculatus (500 ppm of active ingredient) it was 100%; in the data set on Puccinia recondita, 94%. The compound further returned a logP in data set [1] of 4.11.

Regarding `Cn1cc(C(=O)N(Cc2ccccc2-c2cccs2)C2CC2)c(C(F)F)n1` [I.72], the Efficacy in the data set on Sphaerotheca fuliginea was 90%; with Alternaria brassicae it was 70%; with Septoria tritici, 80%; in the data set with Uromyces appendiculatus (500 ppm of active ingredient) it was 83%. The same compound came in with a lipophilicity (logP) in data set [1] of 3.25.

In the case of `Cn1nc(C(F)F)c(C(=S)N(Cc2ccccc2-c2ccsc2)C2CC2)c1F` [I.73], the Efficacy in the data set on Sphaerotheca fuliginea amounted to 100%; in the data set with Uromyces appendiculatus (500 ppm of active ingredient), 100%; with Pyrenophora teres (500 ppm of active ingredient), 71%; in the data set with Puccinia recondita it was 100%; in the data set on Botrytis cinerea (500 ppm of active ingredient), 100%. In data set [1], this compound had a log partition coefficient (logP) of 4.21.

In the case of `Cn1nc(C(F)F)c(C(=S)N(Cc2cc(Cl)ccc2-c2cccs2)C2CC2)c1F` [I.74], the Efficacy in the data set with Sphaerotheca fuliginea is on record as 100%; in the data set on Alternaria brassicae, 83%; in the data set on Uromyces appendiculatus (500 ppm of active ingredient), 100%; with Puccinia recondita it was 94%; in the data set on Botrytis cinerea (500 ppm of active ingredient) it was 100%. In addition, the logP in data set [1] worked out at 4.69.

`CC1CC1N(Cc1ccccc1-c1ccsc1)C(=O)c1c(C(F)F)nn(C)c1F` (stereo not shown) [I.86]: the Efficacy with Sphaerotheca fuliginea amounted to 98%; in the data set with Septoria tritici, 79%; in the data set on Uromyces appendiculatus (500 ppm of active ingredient) it was 97%; with Pyrenophora teres (500 ppm of active ingredient) it was 79%; in the data set with Puccinia recondita, 98%. This compound registered a logP in data set [1] of 3.83.

For the compound `Cc1cscc1-c1ccc(F)cc1CN(C(=O)c1c(C(F)F)nn(C)c1F)C1CC1` [I.102], the Efficacy was found to be 100% in the data set on Sphaerotheca fuliginea; 83% with Alternaria brassicae; 95% with Septoria tritici; 100% in the data set with Uromyces appendiculatus (500 ppm of active ingredient); 100% in the data set with Puccinia recondita; 94% with Botrytis cinerea (500 ppm of active ingredient). This compound also returned a logP in data set [1] of 3.94.

For the compound `Cc1csc(-c2ccc(Cl)cc2CN(C(=O)c2c(C(F)F)nn(C)c2F)C2CC2)c1` [I.103], the Efficacy with Sphaerotheca fuliginea is given as 100%; in the data set on Septoria tritici, 95%; with Uromyces appendiculatus (500 ppm of active ingredient), 94%; in the data set with Pyrenophora teres (500 ppm of active ingredient), 95%; in the data set with Puccinia recondita, 95%; with Botrytis cinerea (500 ppm of active ingredient) it was 98%. In data set [1], this compound gave a log partition coefficient (logP) of 4.51.

Regarding `COc1ccsc1-c1ccccc1CN(C(=O)c1c(C(F)F)nn(C)c1F)C1CC1` [I.120], the Efficacy with Sphaerotheca fuliginea stood at 100%; in the data set on Septoria tritici, 80%; with Uromyces appendiculatus (500 ppm of active ingredient), 100%; in the data set on Pyrenophora teres (500 ppm of active ingredient), 79%; with Puccinia recondita, 100%. This compound also gave a logP in data set [1] of 3.52.

As to `Cn1nc(C(F)F)c(C(=O)N(Cc2cc(Cl)ccc2-c2coc3ccccc23)C2CC2)c1F` [I.130], the Efficacy with Sphaerotheca fuliginea is recorded as 100%; in the data set with Alternaria brassicae, 96%; in the data set on Septoria tritici it was 93%; in the data set with Uromyces appendiculatus (500 ppm of active ingredient) it was 85%; with Pyrenophora teres (500 ppm of active ingredient) it was 79%; in the data set on Puccinia recondita, 81%. Also, the log partition coefficient (logP) in data set [1] came to 4.44.

For `Cn1nc(C(F)F)c(C(=O)N(Cc2cc(F)ccc2-c2ccsc2Cl)C2CC2)c1F` [I.136], the Efficacy with Sphaerotheca fuliginea is on record as 100%; with Alternaria brassicae, 70%; with Septoria tritici, 93%; with Uromyces appendiculatus (500 ppm of active ingredient) it was 100%; in the data set with Pyrenophora teres (500 ppm of active ingredient) it was 86%; in the data set on Puccinia recondita, 98%. In data set [1], the log partition coefficient (logP) turned out to be 4.04.

`Cn1nc(C(F)F)c(C(=O)N(Cc2cc(Cl)ccc2-c2ccsc2Cl)C2CC2)c1F` [I.137]: the Efficacy turned out to be 100% in the data set with Sphaerotheca fuliginea; 70% in the data set on Alternaria brassicae; 97% in the data set on Septoria tritici; 79% with Pyrenophora teres (500 ppm of active ingredient); 88% with Puccinia recondita. For the same compound, the logP in data set [1] was 4.41.

Regarding `Cn1nc(C(F)F)c(C(=O)N(Cc2ccccc2-c2ccsc2Cl)C2CC2)c1F` [I.138], the Efficacy in the data set with Sphaerotheca fuliginea is 100%; in the data set on Septoria tritici, 100%; in the data set with Uromyces appendiculatus (500 ppm of active ingredient), 100%; with Pyrenophora teres (500 ppm of active ingredient) it was 79%; in the data set on Puccinia recondita, 94%; with Botrytis cinerea (500 ppm of active ingredient), 100%. Moreover, the logP in data set [1] amounted to 3.92.

On to `Cn1cc(C(=O)N(Cc2ccccc2-c2ccc(Cl)s2)C2CC2)c(C(F)F)n1` [I.140], for which the Efficacy in the data set on Alternaria brassicae amounted to 90%; with Septoria tritici, 96%; in the data set on Uromyces appendiculatus (500 ppm of active ingredient), 73%. The logP in data set [1] is recorded as 3.87.

Regarding `Cn1nc(C(F)F)c(C(=O)N(Cc2cc(-c3ccc(Cl)s3)ccc2Cl)C2CC2)c1F` [I.143], the Efficacy with Sphaerotheca fuliginea came to 100%; in the data set with Septoria tritici, 100%; with Uromyces appendiculatus (100 ppm of active ingredient) it was 93%; in the data set on Pyrenophora teres (500 ppm of active ingredient), 79%; with Puccinia recondita, 88%; with Botrytis cinerea (500 ppm of active ingredient), 98%. For the same compound, in data set [1], the logP worked out at 4.83.

In the case of `Cn1nc(C(F)F)c(C(=O)N(Cc2cc(F)ccc2-c2csc3ccccc23)C2CC2)c1F` [I.154], the Efficacy is listed as 98% with Sphaerotheca fuliginea; 75% with Alternaria brassicae; 96% in the data set on Septoria tritici; 71% with Pyrenophora teres (500 ppm of active ingredient); 75% in the data set with Puccinia recondita. In data set [1], this compound registered a logP of 4.39.

On to `Cn1nc(C(F)F)c(C(=O)N(Cc2ccc(Cl)cc2-c2csc3ccccc23)C2CC2)c1F` [I.159], for which the Efficacy with Sphaerotheca fuliginea came to 100%; in the data set on Septoria tritici it was 88%; in the data set on Uromyces appendiculatus (500 ppm of active ingredient) it was 84%; with Pyrenophora teres (100 ppm of active ingredient) it was 75%; with Botrytis cinerea (500 ppm of active ingredient), 100%. In data set [1], this compound registered a logP of 4.92.
